Reference: patent US5332726A, “Antithrombotic peptides and pseudopeptides” (Rhone-Poulenc Rorer Pharmaceuticals Inc., priority 1992, dated 1994)
Where two headings read alike, the source gives them in different places. Non-standard residues stand in square brackets, D forms with d. Residues, ends and D or L forms follow the SMILES beside them. Ahx = NCCCCCC(=O)O; NEtG = CCNCC(=O)O; Sar = CNCC(=O)O

How the values were obtained:
[1] = molecular target: thrombin-stimulated platelets (Homo sapiens, UniProt P05106+P08514); test: Fibrinogen-Binding Assay (125I-fibrinogen binding to platelets)
Procedure: Platelets are washed free of plasma constituents by the albumin density-gradient technique of Walsh, P. N., et al., Br. J. Haematol. […] After these additions, the final platelet count in the mixture is 1×10^11 /liter. After incubation for an additional 30 minutes at 22°-25° C., bound and free ligand are separated by centrifuging 50 μl of the mixture through 300 μl of 20% sucrose at 12,000×g for 4 minutes. The platelet pellet is then separated from the rest of the mixture to determine platelet-bound radioactivity. Nonspecific binding is measured in mixtures containing an excess of unlabeled ligand. […] The IC50 is derived by plotting residual fibrinogen binding against the logarithm of the sample compound's concentration.

[2] = molecular target: fixed activated platelets (Homo sapiens, UniProt P05106+P08514); test: Platelet Aggregation Assay (fibrinogen-mediated aggregation of fixed-activated platelets); assay type: cell-based
Method in brief: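 Activated platelets fixed with 0.50% paraformaldehyde for 30 min at room temperature. They were then pre-incubated 1 min with test compound before aggregation was triggered by human fibrinogen at 250 μg/ml final. Aggregation recorded on an aggregometer.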

[3] = 125I-fibrinogen 0.176 μmol/liter, thrombin-stimulated platelets; read-out: Inhibition of 125I-Fibrinogen Binding to Platelets IC50
[4] = fixed activated platelets, human fibrinogen 250 μg/ml; read-out: Inhibition of Fibrinogen Mediated Platelet Aggregation IC50
[5] = read-out: Inhibition of Fibrinogen Mediated Platelet Aggregation % inhibition at 25 μM
[6] = read-out: Inhibition of Fibrinogen Mediated Platelet Aggregation % inhibition at 100 μM

Sequence of fixed activated platelets (P08514 32-1039): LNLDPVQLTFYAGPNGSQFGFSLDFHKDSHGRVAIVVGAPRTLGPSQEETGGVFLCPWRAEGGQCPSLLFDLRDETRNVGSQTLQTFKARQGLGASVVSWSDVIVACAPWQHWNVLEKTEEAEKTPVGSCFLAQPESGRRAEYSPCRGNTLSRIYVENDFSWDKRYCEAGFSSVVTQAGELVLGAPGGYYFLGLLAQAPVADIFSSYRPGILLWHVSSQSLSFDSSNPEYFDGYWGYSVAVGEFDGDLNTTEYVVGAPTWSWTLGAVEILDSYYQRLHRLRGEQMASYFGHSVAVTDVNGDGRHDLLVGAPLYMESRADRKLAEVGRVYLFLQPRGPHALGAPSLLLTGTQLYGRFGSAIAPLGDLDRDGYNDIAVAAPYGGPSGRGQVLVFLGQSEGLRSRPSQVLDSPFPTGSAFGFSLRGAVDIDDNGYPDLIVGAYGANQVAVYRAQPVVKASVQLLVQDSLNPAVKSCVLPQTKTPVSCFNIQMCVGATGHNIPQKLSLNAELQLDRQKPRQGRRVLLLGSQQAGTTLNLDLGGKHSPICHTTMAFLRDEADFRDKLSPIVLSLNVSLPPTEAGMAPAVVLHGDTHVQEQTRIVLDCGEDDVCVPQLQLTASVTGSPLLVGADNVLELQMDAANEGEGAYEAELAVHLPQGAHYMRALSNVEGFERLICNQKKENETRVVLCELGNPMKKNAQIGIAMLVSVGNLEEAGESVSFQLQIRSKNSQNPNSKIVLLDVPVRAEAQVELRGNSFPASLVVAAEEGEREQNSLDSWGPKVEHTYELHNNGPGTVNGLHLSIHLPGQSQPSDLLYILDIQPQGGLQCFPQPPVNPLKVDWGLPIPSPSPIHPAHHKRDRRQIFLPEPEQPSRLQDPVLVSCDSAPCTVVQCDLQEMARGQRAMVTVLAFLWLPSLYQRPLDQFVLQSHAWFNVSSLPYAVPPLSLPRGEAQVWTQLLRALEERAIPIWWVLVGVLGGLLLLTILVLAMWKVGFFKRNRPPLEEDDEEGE
Sequence of fixed activated platelets (P05106 27-788): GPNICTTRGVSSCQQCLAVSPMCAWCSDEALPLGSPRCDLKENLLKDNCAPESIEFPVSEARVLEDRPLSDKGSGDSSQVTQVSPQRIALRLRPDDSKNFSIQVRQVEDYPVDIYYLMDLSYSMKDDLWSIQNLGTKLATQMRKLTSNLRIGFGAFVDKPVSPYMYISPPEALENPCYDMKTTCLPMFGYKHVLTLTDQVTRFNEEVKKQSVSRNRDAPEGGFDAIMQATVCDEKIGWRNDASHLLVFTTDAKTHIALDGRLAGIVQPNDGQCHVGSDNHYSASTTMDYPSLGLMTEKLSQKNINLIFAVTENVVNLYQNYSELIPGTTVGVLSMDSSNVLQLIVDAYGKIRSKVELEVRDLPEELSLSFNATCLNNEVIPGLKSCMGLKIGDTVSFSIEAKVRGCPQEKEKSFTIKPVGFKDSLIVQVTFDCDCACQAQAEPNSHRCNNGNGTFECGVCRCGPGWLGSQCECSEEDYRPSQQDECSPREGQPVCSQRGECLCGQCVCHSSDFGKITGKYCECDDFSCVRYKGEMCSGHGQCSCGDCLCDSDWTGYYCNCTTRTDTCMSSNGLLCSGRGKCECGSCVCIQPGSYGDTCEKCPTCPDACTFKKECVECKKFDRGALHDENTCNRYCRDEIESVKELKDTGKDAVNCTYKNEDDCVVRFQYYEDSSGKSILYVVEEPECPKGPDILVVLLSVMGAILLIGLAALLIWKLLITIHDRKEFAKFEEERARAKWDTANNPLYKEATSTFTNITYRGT
Sequence of thrombin-stimulated platelets (P08514 32-1039): as the sequence (P08514 32-1039) above
Sequence of thrombin-stimulated platelets (P05106 27-788): as the sequence (P05106 27-788) above

| Compound | IC50 [1, 3] [µM] | IC50 [2, 4] [µM] | inhibition at 25 µM [2, 5] [%] | IC50 ([1]; read-out: Inhibition of 125I-Fibrinogen Binding to Platelets IC50; 125I-fibrinogen 0.176 μmol/liter, thrombin-stimulated platelets) [µM] | IC50 ([2]; read-out: Inhibition of Fibrinogen Mediated Platelet Aggregation IC50; fixed activated platelets, human fibrinogen 250 μg/ml) [µM] | inhibition at 100 µM [2, 6] [%] |
| --- | --- | --- | --- | --- | --- | --- |
| CC[C@H](C)[C@H](NC(=O)[C@H](CC(=O)O)NC(=O)CCCCCCCCNC(=N)N)C(=O)O [9-Guanidinononanoyl-L-aspartyl-L-isoleucine] | 0.38 | 4.2 | 93 | – | – | – |
| CCN(CC(=O)N[C@@H](CC(=O)O)C(=O)N[C@H](C(=O)O)C(C)C)C(=O)CCCCCN [6-Aminohexanoyl-N-ethylglycyl-L-aspartyl-L-valine] (H-[Ahx][NEtG]DV-OH) | 4 | 4.1 | 92 | – | – | – |
| CC(C)[C@H](NC(=O)[C@H](CC(=O)O)NC(=O)Cn1nnnc1CCCCCNC(=N)N)C(=O)O [[5-(5'-Guanidinopentyl)Tetrazol-1-yl]-Acetyl-L-Aspartyl-L-Valine] | – | – | 40 | 2.2 | > 25 | – |
| CC(C)CCOC(=O)[C@H](CCCNC(=N)N)NC(=O)[C@H](CC(=O)O)NC(=O)CCCCCCCCNC(=N)N [9-Guanidinononanoyl-L-aspartyl-L-arginine-3-methylbutyl ester] | 0.15 | 1.7 | 97 | – | – | – |
| CC(C)[C@H](NC(=O)[C@H](CC(=O)O)NC(=O)/C=C/CCCCCCNC(=N)N)C(=O)O [9-Guanidinonon-2-(E)-enoyl-L-aspartyl-L-valine] | 0.43 | – | 24 | – | – | – |
| CCN(CC(=O)N[C@@H](CC(=O)O)C(=O)NC(CC)(CC)C(=O)O)C(=O)CCCCCNC(=N)N [6-Guanidinohexanoyl-N-ethyl-glycyl-L-aspartyl-2,2-diethylglycine] | 5 | 11.4 | 73 | – | – | – |
| CCC(C)COC(=O)[C@H](CCCNC(=N)N)NC(=O)[C@H](CC(=O)O)NC(=O)CCCCCCCCNC(=N)N (stereo partly drawn) [9-Guanidinononanoyl-L-aspartyl-L-arginine-2-methyl-butylester] | 0.12 | 0.73 | 97 | – | – | – |
| N=C(N)NCCCCCCCCC(=O)N[C@@H](CC(=O)O)C(=O)N[C@@H](CCCNC(=N)N)C(=O)OC1CCCCC1 [9-Guanidinononanoyl-L-aspartyl-L-arginine-cyclohexylester] | 0.26 | 0.82 | 91 | – | – | – |
| CC[C@H](C)[C@H](NC(=O)[C@H](CC(=O)O)NC(=O)CCCCCCCCNC(=N)N)C(=O)N[C@H](CCCNC(=N)N)C(=O)O [9-Guanidinononanoyl-L-aspartyl-L-isoleucyl-D-arginine] | 15 | 2 | 97 | – | – | – |
| CCN(CC(=O)N[C@@H](CC(=O)O)C(=O)N[C@H](C(=O)O)C(C)C)C(=O)CCCCCNC(=N)N [6-Guanidinohexanoyl-N-ethylglycine-L-aspartyl-L-valine] | 0.12 | 0.38 | 96 | – | – | – |
| CC(C)[C@H](NC(=O)[C@H](CC(=O)O)NC(=O)CCCCCCCn1ccnc1)C(=O)O [8-(Imidazol-1-yl)-octanoyl-L-aspartyl-L-valine] | 0.86 | 11.6 | 78 | – | – | – |
| CC(C)[C@H](NC(=O)CNC(=O)CNC(=O)[C@@H](N)CCCNC(=N)N)C(=O)O [L-arginyl glycyl glycyl-L-valine] (H-RGGV-OH) | > 200 | > 100 | – | – | – | 10 |
| CC[C@H](C)[C@H](NC(=O)CCNC(=O)[C@H](CC(=O)O)NC(=O)CCCCCCCCNC(=N)N)C(=O)O [9-Guanidinononanoyl-L-aspartyl-β-alanyl-L-isoleucine] | 54 | 999 | 9 | – | – | – |
| CC(C)[C@H](NC(=O)[C@H](CC(=O)O)NC(=O)CCCCCCCCCCNC(=N)N)C(=O)O [11-guanidinoundecanoyl-L-aspartyl-L-valine] | 17 | – | 36 | – | – | – |
| CC[C@H](C)[C@H](NC(=O)[C@H](CC(=O)O)NC(=O)CCCCCCCCNC(=N)N)C(=O)NCCCCNC(=N)N [9-Guanidinononanoyl-L-aspartyl-isoleucine-4-guanidinobutyl amide] | 0.24 | 5.7 | 95 | – | – | – |
| CCN(CC(=O)N[C@@H](CC(=O)O)C(=O)N[C@@H](Cc1c[nH]c2ccccc12)C(=O)O)C(=O)CCCCCNC(=N)N [6-Guanidinohexanoyl-N-(ethyl)glycyl-L-aspartyl-L-tryptophan] | 0.13 | 1.3 | 91 | – | – | – |
| CC(C)[C@H](NC(=O)[C@H](CC(=O)O)NC(=O)CNC(=O)CCCCCNC(=N)N)C(=O)O [6-Guanidinohexanoyl-glycyl-L-aspartyl-L-valine] | 1.4 | 6.5 | 90 | – | – | – |

| Compound | IC50 [1, 3] [µM] | IC50 [2, 4] [µM] | inhibition at 25 µM [2, 5] [%] | IC50 ([1]; read-out: Inhibition of 125I-Fibrinogen Binding to Platelets IC50; 125I-fibrinogen 0.176 μmol/liter, thrombin-stimulated platelets) [µM] | IC50 ([2]; read-out: Inhibition of Fibrinogen Mediated Platelet Aggregation IC50; fixed activated platelets, human fibrinogen 250 μg/ml) [µM] | inhibition at 100 µM [2, 6] [%] |
| --- | --- | --- | --- | --- | --- | --- |
| CC(C)[C@H](NC(=O)[C@H](CC(=O)O)NC(=O)CN(C)C(=O)CCCCn1ccnc1)C(=O)O [5-(Imidazol-1-yl)-pentanoyl-sarcosyl-L-aspartyl-L-valine] | 0.15 | 1.5 | 95 | – | – | – |
| N=C(N)NCCCCCCCC(=O)N[C@@H](CC(=O)O)C(=O)NCCCCNC(=N)N [8-Guanidinooctanoyl-L-aspartyl-(des-carboxy)-L-arginine] | 0.99 | 1.9 | 91 | – | – | – |
| CC(C)[C@H](NC(=O)[C@H](CC(=O)O)NC(=O)CN(C)C(=O)CCCCCn1ccnc1-c1ccccc1)C(=O)O [6-(2-Phenylimidazol-1-yl)hexanoyl-sarcosyl-L-aspartyl-L-valine] | 0.38 | 5.6 | 84 | – | – | – |
| CC(C)[C@H](NC(=O)[C@H](CC(=O)O)NC(=O)CN(C)C(=O)CCCNC(=N)N)C(=O)O [4-Guanidinobutanoyl-L-sarcosyl-L-aspartyl-L-valine] | 3.3 | 10.8 | 84 | – | – | – |
| CC[C@H](C)[C@H](NC(=O)[C@H](CC(=O)O)NC(=O)CN(CC)C(=O)CCCCCNC(=N)N)C(=O)O [6-Guanidinohexanoyl-N-ethylglycyl-L-aspartyl-L-isoleucine] | 0.05 | 0.56 | 96 | – | – | – |
| CC(C)[C@H](NC(=O)[C@H](CC(=O)O)NC(=O)CN(C)C(=O)CCCCNC(=N)N)C(=O)O [5-Guanidinovaleroyl-sarcosyl-L-aspartyl-L-valine] | 1 | 0.52 | 94 | – | – | – |
| CCN(CC(=O)N[C@@H](CC(=O)O)C(=O)N[C@@H](Cc1ccc(O)cc1)C(=O)O)C(=O)CCCCCNC(=N)N [6-Guanidinohexanoyl-N-(ethyl)glycyl-L-aspartyl-L-tyrosine] | 0.18 | 1.25 | 95 | – | – | – |
| CC(C)[C@H](NC(=O)[C@H](CC(=O)O)NC(=O)CNC(=O)CCCCNC(=N)N)C(=O)O [N-(5-guanidinopentanoyl)glycyl-L-aspartyl-L-valine] | 0.7 | 2.3 | – | – | – | 92 |
| CC[C@H](C)[C@H](NC(=O)[C@H](CC(=O)O)NC(=O)CCCCCCCCNC(=N)N)C(=O)N[C@@H](CCCNC(=N)N)C(=O)O [9-Guanidinononanoyl-L-aspartyl-isoleucyl-arginine] | 0.37 | 0.67 | 94 | – | – | – |
| CC(C)[C@H](NC(=O)[C@H](CC(=O)O)NC(=O)C=CCCCCCCCNC(=N)N)C(=O)O [10-Guanidinodec-2-enoyl-L-aspartyl-L-valine] | 12 | 8.8 | 77 | – | – | – |
| CCN(CC(=O)N[C@@H](CC(=O)O)C(=O)N[C@@H](CC(C)C)C(=O)O)C(=O)CCCCCNC(=N)N [6-guanidinohexanoyl-N-ethyl-glycyl-L-aspartyl-L-leucine] | 5.4 | 0.56 | 95.5 | – | – | – |
| CCN(CC(=O)N[C@@H](CC(=O)O)C(=O)N[C@@H](Cc1ccccc1)C(=O)O)C(=O)CCCCCNC(=N)N [6-Guanidinohexanoyl-N-ethylglycyl-L-aspartyl-L-phenylalanine] | 0.2 | 1.3 | 97 | – | – | – |
| CC(C)CNC(=O)[C@H](CCCNC(=N)N)NC(=O)[C@H](CC(=O)O)NC(=O)CCCCCCCCNC(=N)N [9-Guanidinononanoyl-L-aspartyl-L-arginine isobutyl amide] | 3 | 2.2 | 89 | – | – | – |
| CC(C)[C@H](NC(=O)[C@H](CC(=O)O)NC(=O)CN(C)C(=O)[C@@H](N)CCCNC(=N)N)C(=O)O [L-arginylsarcosyl-L-aspartyl-L-valine] (H-R[Sar]DV-OH) | 14 | 14 | – | – | – | 92 |
| N=C(N)NCCCCCCCCC(=O)N[C@@H](CC(=O)O)C(=O)NC(Cc1ccccc1)(Cc1ccccc1)C(=O)O [9-Guanidinononanoyl-L-aspartyl-α-benzylphenylalanine] | > 200 | > 25 | 10 | – | – | – |
| N=C(N)NCCCCCCCCC(=O)N[C@@H](CC(=O)O)C(=O)NCCC(=O)N[C@@H](CCCNC(=N)N)C(=O)O [9-Guanidinononanoyl-L-aspartyl-β-alanyl-L-arginine] | 0.64 | 1.5 | 93 | – | – | – |
| CN(CC(=O)N[C@@H](CC(=O)O)C(=O)N[C@@H](CCCCN)C(=O)O)C(=O)CCCCCNC(=N)N [6-Guanidinohexanoyl-sarcosyl-L-aspartyl-L-lysine] | 0.34 | 4.1 | 86 | – | – | – |
